Assay results reported in patent US12077555B2, “STAT degraders and uses thereof” (Kymera Therapeutics, Inc., priority 2019, dated 2024).

Legend:
[1] = biological target: STAT3 (Homo sapiens, UniProt P40763); assay: STAT3 HiBiT degradation assay in transfected A549 cells; type: cell-based; set-up: expressed in transfected cells; host or cells: A549; details: A549, 24 h; read-out: STAT3 HiBiT A549 degradation 24 h: Average external-Abs DC50
Method in brief: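 Transfected A549 cells (~2000/well) plated 24 h, then treated 24 h at 37 °C, 5% CO2 with a 3-fold, 10-point compound dilution. HiBiT lytic luminescence read after 10 min at room temperature; remaining STAT3 normalized to negative and positive controls, four-parameter fit. DC50 binned A <0.01, B 0.01–0.1, C 0.1–1.0, D >1.0 µM.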

[2] = test system: SU-DHL-1 tumor cells; assay: Xenograph tumor study, SU-DHL-1; type: in vivo, NOD SCID mice; details: SUDHL-1 xenograph, 2.5-30 mg/kg, 2 days on/5 days off
Procedure: Animals: 50 6-8 week old female NOD SCID mice weighing 18 to 20 grams. 25 mice were used in each study.
Method for Tumor Inoculation: Each mouse was inoculated subcutaneously with SU-DHL-1 tumor cells (1×107+Matrigel) or SUP-M2 tumor cells (5×106+Matrigel) in 0.1 ml of RPMI1640 medium supplemented with 10% FBS, 100 U/ml penicillin and […] streptomycin for tumor development. Mice were then assigned to groups such that the mean tumor volume was the same for each treatment group and time point. […] Vehicle was 25% HP-β-CD in water adjusted to pH 7.4.
Measurement Parameters: Study animals were monitored not only for tumor growth but also behavior such as mobility, food and water consumption (by cage side checking only), body weight (BW), eye/hair matting and any other abnormal effect. Any mortality and/or abnormal clinical signs was recorded. Sponsor was notified immediately if abnormal clinical signs, or if tolerability issues were observed. Body weights of all animals were measured and recorded twice per week. The measurement of tumor size was conducted twice weekly with a caliper and recorded. The tumor volume (mm3) was estimated using the formula: TV=a×b2/2, where “a” and “b” are long and short diameters of a tumor, respectively.

Sequence of STAT3 (P40763 whole entry): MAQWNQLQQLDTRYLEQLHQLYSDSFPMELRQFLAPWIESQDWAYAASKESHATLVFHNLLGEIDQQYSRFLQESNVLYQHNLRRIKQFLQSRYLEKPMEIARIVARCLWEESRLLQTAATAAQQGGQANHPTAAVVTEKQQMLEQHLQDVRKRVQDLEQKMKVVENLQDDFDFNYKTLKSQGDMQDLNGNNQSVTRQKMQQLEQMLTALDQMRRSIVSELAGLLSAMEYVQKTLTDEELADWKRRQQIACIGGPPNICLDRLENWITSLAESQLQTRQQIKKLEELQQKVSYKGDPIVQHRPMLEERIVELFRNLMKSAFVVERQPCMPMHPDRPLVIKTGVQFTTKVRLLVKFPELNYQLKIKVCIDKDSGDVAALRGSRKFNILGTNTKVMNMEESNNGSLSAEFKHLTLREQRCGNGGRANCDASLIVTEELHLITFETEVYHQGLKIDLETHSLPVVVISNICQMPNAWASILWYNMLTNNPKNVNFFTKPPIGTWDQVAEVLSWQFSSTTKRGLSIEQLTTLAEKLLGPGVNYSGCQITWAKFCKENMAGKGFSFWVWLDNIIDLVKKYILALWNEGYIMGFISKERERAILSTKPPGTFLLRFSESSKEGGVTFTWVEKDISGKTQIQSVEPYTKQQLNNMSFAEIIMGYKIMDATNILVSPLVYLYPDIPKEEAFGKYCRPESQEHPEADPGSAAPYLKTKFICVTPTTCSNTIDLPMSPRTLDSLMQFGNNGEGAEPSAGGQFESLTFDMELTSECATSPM

Compound: Cn1c(=O)n(C2CCC(=O)NC2=O)c2ccc(C[C@H]3CC[C@@H](CC(=O)N4CC[C@H]5CC[C@@H](C(=O)N[C@@H](CCC(N)=O)C(=O)NCc6ccc(S(C)(=O)=O)cc6)N5C(=O)[C@@H](NC(=O)c5cc6cc(C(=O)P(=O)(O)O)ccc6[nH]5)C4)CC3)cc21 (stereo partly drawn) [Compound I-195, 2-[[(5S,8S,10aR)-8-[[(1S)-3-carbamoyl-1-[[(4-methanesulfonylphenyl)methyl]carbamoyl]propyl]carbamoyl]-6-oxo-3-[2-[(1S,4S)-4-[[1-(2,6-dioxopiperidin-3-yl)-3-methyl-2-oxo-1,3-benzodiazol-5-yl]methyl]cyclohexyl]acetyl]-octahydropyrrolo[1,2-a][1,5]diazocin-5-yl]carbamoyl]-1H-indole-5-carbonylphosphonic acid]
- DC50 [1]: 10 to 100 nM
- tumor volume, 5 days ([2]; IP): A (A<500 mm^3)
- tumor volume, 10 days ([2]; IP): A (A<500 mm^3)
- tumor volume, 15 days ([2]; IP): A (A<500 mm^3)
- tumor volume, 20 days ([2]; IP): A (A<500 mm^3)

Compound: CC(C)c1ccc(CNC(=O)[C@H](CCC(N)=O)NC(=O)[C@@H]2CC[C@@H]3CCN(C(=O)C[C@H]4CC[C@@H](Cc5ccc6c(c5)n(C)c(=O)n6C5CCC(=O)NC5=O)CC4)C[C@H](NC(=O)c4cc5cc(C(=O)P(=O)(O)O)ccc5[nH]4)C(=O)N32)cc1 (stereo partly drawn) [Compound I-196, 2-[[(5S,8S,10aR)-8-[[(1S)-3-carbamoyl-1-[[(4-isopropylphenyl)methyl]carbamoyl]propyl]carbamoyl]-6-oxo-3-[2-[(1S,4S)-4-[[1-(2,6-dioxopiperidin-3-yl)-3-methyl-2-oxo-1,3-benzodiazol-5-yl]methyl]cyclohexyl]acetyl]-octahydropyrrolo[1,2-a][1,5]diazocin-5-yl]carbamoyl]-1H-indole-5-carbonylphosphonic acid]
- DC50 [1]: 10 to 100 nM
- tumor volume, 5 days ([2]; IP): A (A<500 mm^3)
- tumor volume, 10 days ([2]; IP): A (A<500 mm^3)
- tumor volume, 15 days ([2]; IP): A (A<500 mm^3)
- tumor volume, 20 days ([2]; IP): A (A<500 mm^3)

Compound: CC(=O)N1CC[C@H]2CC[C@@H](C(=O)N[C@@H](CCC(N)=O)COc3cccc(CCCCC(=O)N[C@H](C(=O)N4C[C@H](O)C[C@H]4C(=O)N[C@@H](C)c4ccc(-c5scnc5C)cc4)C(C)(C)C)c3Cl)N2C(=O)[C@@H](NC(=O)c2cc3cc(C(=O)P(=O)(O)O)ccc3[nH]2)C1 [Compound I-233, diammonium 2-[[(5S,8S,10aR)-3-acetyl-8-[[(2S)-4-carbamoyl-1-[2-chloro-3-(4-[[(2S)-1-[(2S,4R)-4-hydroxy-2-[[(1S)-1-[4-(4-methyl-1,3-thiazol-5-yl)phenyl]ethyl]carbamoyl]pyrrolidin-1-yl]-3,3-dimethyl-1-oxobutan-2-yl]carbamoyl]butyl)phenoxy]butan-2-yl]carbamoyl]-6-oxo-octahydropyrrolo[l,2-a][1,5]diazocin-5-yl]carbamoyl]-1H-indole-5-carbonylphosphonate]
- DC50 [1]: < 10 nM
- tumor volume, 5 days ([2]; IV): A (A<500 mm^3)
- tumor volume, 10 days ([2]; IV): A (A<500 mm^3)
- tumor volume, 15 days ([2]; IV): A (A<500 mm^3)
- tumor volume, 20 days ([2]; IV): A (A<500 mm^3)

Compound: CC(=O)N1CC[C@H]2CC[C@@H](C(=O)N[C@@H](CCC(N)=O)COc3cccc(CCCC(=O)N[C@H](C(=O)N4C[C@H](O)C[C@H]4C(=O)N[C@@H](C)c4ccc(-c5scnc5C)cc4)C(C)(C)C)c3Cl)N2C(=O)[C@@H](NC(=O)c2cc3cc(C(=O)P(=O)(O)O)ccc3[nH]2)C1 [Compound I-241, diammonium 2-[[(5S,8S,10aR)-3-acetyl-8-[[(2S)-4-carbamoyl-1-[2-chloro-3-(3-[[(2S)-1-[(2S,4R)-4-hydroxy-2-[[(1S)-1-[4-(4-methyl-1,3-thiazol-5-yl)phenyl]ethyl]carbamoyl]pyrrolidin-1-yl]-3,3-dimethyl-1-oxobutan-2-yl]carbamoyl]propyl)henoxy]butan-2-yl]carbamoyl]-6-oxo-octahydropyrrolo[1,2-a][1,5]diazocin-5-yl]carbamoyl]-1H-indole-5-carbonylphosphonate]
- DC50 [1]: < 10 nM
- tumor volume, 5 days ([2]; IV): A (A<500 mm^3)
- tumor volume, 10 days ([2]; IV): A (A<500 mm^3)
- tumor volume, 15 days ([2]; IV): A (A<500 mm^3)
- tumor volume, 20 days ([2]; IV): A (A<500 mm^3)

Compound: Cc1ncsc1-c1ccc([C@H](C)NC(=O)[C@@H]2C[C@@H](O)CN2C(=O)[C@@H](NC(=O)CCCc2cccc(OC[C@H](CCC(N)=O)NC(=O)[C@@H]3Cc4cccc5c4N3C(=O)[C@@H](NC(=O)c3cc4cc(C(=O)P(=O)(O)O)ccc4[nH]3)CC5)c2F)C(C)(C)C)cc1 [Compound I-261, 2-[[(2S,11S)-2-[[(2S)-4-carbamoyl-1-[2-fluoro-3-(3-[[(2S)-1-[(2S,4R)-4-hydroxy-2-[[(1S)-1-[4-(4-methyl-1,3-thiazol-5-yl)phenyl]ethyl]carbamoyl]pyrrolidin-1-yl]-3,3-dimethyl-1-oxobutan-2-yl]carbamoyl]propyl)phenoxy]butan-2-yl]carbamoyl]-12-oxo-1-azatricyclo[6.4.1.0^[4,13]]trideca-4(13),5,7-trien-11-yl]carbamoyl]-1H-indole-5-carbonylphosphonic acid]
- DC50 [1]: < 10 nM
- tumor volume, 5 days ([2]; IP): A (A<500 mm^3)
- tumor volume, 10 days ([2]; IP): A (A<500 mm^3)
- tumor volume, 15 days ([2]; IP): A (A<500 mm^3)
- tumor volume, 20 days ([2]; IP): A (A<500 mm^3)

Compound: CC(=O)N1CC[C@H]2CC[C@@H](C(=O)N[C@@H](CCC(N)=O)COc3cc(C)cc(CCCCCC(=O)N[C@H](C(=O)N4C[C@H](O)C[C@H]4C(=O)N[C@@H](C)c4ccc(-c5scnc5C)cc4)C(C)(C)C)c3F)N2C(=O)[C@@H](NC(=O)c2cc3cc(C(=O)P(=O)(O)O)ccc3[nH]2)C1 [Compound I-262, 2-[[(5S,8S,10aR)-3-acetyl-8-[[(2S)-4-carbamoyl-1-[2-fluoro-3-(5-[[(2S)-1-[(2S,4R)-4-hydroxy-2-[[(1S)-1-[4-(4-methyl-1,3-thiazol-5-yl)phenyl]ethyl]carbamoyl]pyrrolidin-1-yl]-3,3-dimethyl-1-oxobutan-2-yl]carbamoyl]pentyl)-5-methylphenoxy]butan-2-yl]carbamoyl]-6-oxo-octahydropyrrolo[1,2-a][1,5]diazocin-5-yl]carbamoyl]-1H-indole-5-carbonylphosphonic acid]
- DC50 [1]: < 10 nM
- tumor volume, 5 days ([2]; IV): A (A<500 mm^3)
- tumor volume, 10 days ([2]; IV): A (A<500 mm^3)
- tumor volume, 15 days ([2]; IV): A (A<500 mm^3)
- tumor volume, 20 days ([2]; IV): A (A<500 mm^3)
